Data reported in patent US4477440A, “Renin inhibitors containing an n-terminal disulfide cycle” (Merck & Co., Inc., priority 1983, dated 1984).
Positions of bridges follow the written chain, without caps; N, C: chain ends. Non-standard residues stand in square brackets, D forms with d. Residues, ends and D or L forms follow the SMILES beside them. Sta = CC(C)C[C@H](N)[C@@H](O)CC(=O)O; hCys = N[C@@H](CCS)C(=O)O

Legend:
human kidney renin = target: T1, human kidney renin (Homo sapiens, UniProt P00797); experiment: Human renin inhibition; type: biochemical; conditions: purified human kidney renin; dissociation constant of enzyme-inhibitor complex
T1 construct: human kidney renin purified as described in Bangham; from tissue; host or cells: human kidney
T1 sequence (P00797 67-406): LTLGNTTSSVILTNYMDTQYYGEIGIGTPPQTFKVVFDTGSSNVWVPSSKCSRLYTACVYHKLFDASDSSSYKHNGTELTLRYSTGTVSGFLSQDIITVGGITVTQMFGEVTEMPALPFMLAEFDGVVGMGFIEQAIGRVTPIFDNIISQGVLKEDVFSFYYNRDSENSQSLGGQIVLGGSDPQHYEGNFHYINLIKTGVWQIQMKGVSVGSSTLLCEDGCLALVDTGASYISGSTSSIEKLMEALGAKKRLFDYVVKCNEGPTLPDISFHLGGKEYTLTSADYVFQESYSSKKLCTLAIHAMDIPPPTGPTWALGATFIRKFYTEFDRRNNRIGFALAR
Procedure: An assay was carried out in order to determine the inhibitory potency of the peptides of the present invention. The assay measured the inhibition of human kidney renin purified as described in Bangham, D. R., Robertson, I., Robinson, J. I. S., Robinson, C. J., and Tree, M., Clinical Science and Molecular Medicine, 48 (Supp. 2): 136s-159s (1975), and further purified by affinity chromatography on pepstatin-aminohexyl-Sepharase as described in Poe, M., Wu., J. K., Florance, J. R., Radkey, J. A., Bennett, C. D., and Hoogsteen, K., J. Biol. Chem. (1982, in press). The assay was also in accordance with Poe et al. cited above. Results are expressed as KI values, which refer to the dissociation constant of the inhibited enzyme-inhibitor complex. This KI value was obtained as described above. Pepstatin was used as an active control.

hog renin = conditions: after injection of hog renin into nephrectomized rats; cited from earlier work

Row | Ki (human kidney renin) | Molecule | blood pressure in vivo (hog renin)
1 | 410 nM | COC(=O)[C@H](Cc1ccccc1)NC(=O)[C@H](CC(C)C)NC(=O)C[C@H](O)[C@H](CC(C)C)NC(=O)[C@@H]1CCSSCC[C@H](N)C(=O)N2CCC[C@H]2C(=O)N[C@@H](Cc2ccccc2)C(=O)N1 (H-[hCys]PF[hCys][Sta]LF-OMe; disulfide 1-4) | –
2 | – | pepstatin | reduce blood pressure in vivo
